According to PubChem BioAssay AID330 (DTP/NCI, 2004):
Values joined by “and” are separate entries in the source; they are usually repeats but may differ in a detail not shown here. Identical values can stand only once. Toxic doses and inconclusive results are not listed.

Test system: P388 leukemia ip, CD2F1 mice, survival T/C
Assay: NCI In Vivo Anticancer Drug Screen. Data for tumor model P388 Leukemia (intraperitoneal) in CD2F1 (CDF1) mice
Settings: endpoint: median survival time, higher = longer survival
How it was run: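 Mice carrying the transplanted tumor received test compound or vehicle. Survival was recorded in each group, and the value is the treated-group measurement divided by that of the vehicle-treated control group.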

[1] = dose: 25.0 mg/kg/injection, schedule: Q01DX009 (ip), vehicle: saline with Tween-80
[2] = dose: 25.0 mg/kg/injection, schedule: Q04DX003 (ip), vehicle: saline with Tween-80
[3] = dose: 50.0 mg/kg/injection, schedule: Q01DX009 (ip), vehicle: saline with Tween-80
[4] = dose: 50.0 mg/kg/injection, schedule: Q04DX003 (ip), vehicle: saline with Tween-80
[5] = dose: 100.0 mg/kg/injection, schedule: Q01DX009 (ip), vehicle: saline with Tween-80
[6] = dose: 100.0 mg/kg/injection, schedule: Q04DX003 (ip), vehicle: saline with Tween-80
[7] = dose: 200.0 mg/kg/injection, schedule: Q04DX003 (ip), vehicle: saline with Tween-80
[8] = dose: 200.0 mg/kg/injection, schedule: Q01DX009 (ip), vehicle: saline with Tween-80
[9] = dose: 60.0 mg/kg/injection, schedule: Q01DX005 (ip), vehicle: saline with Tween-80
[10] = dose: 120.0 mg/kg/injection, schedule: Q01DX005 (ip), vehicle: saline with Tween-80
[11] = dose: 50.0 mg/kg/injection, schedule: Q01DX009 (ip), vehicle: Klucel (hydroxypropylcellulose) (HPC)
[12] = dose: 100.0 mg/kg/injection, schedule: Q01DX009 (ip), vehicle: Klucel (hydroxypropylcellulose) (HPC)
[13] = dose: 200.0 mg/kg/injection, schedule: Q01DX009 (ip), vehicle: Klucel (hydroxypropylcellulose) (HPC)
[14] = dose: 60.0 mg/kg/injection, schedule: Q01DX005 (ip), vehicle: saline
[15] = dose: 12.5 mg/kg/injection, schedule: Q01DX005 (ip), vehicle: Klucel (hydroxypropylcellulose) (HPC)

## O=[N+]([O-])c1cccc(SNc2cccc(Cl)c2)c1
[1]
  T/C: 100 % of control
[2]
  T/C: 90 % of control
[3]
  T/C: 95 % of control
[4]
  T/C: 100 % of control
[5]
  T/C: 104 % of control
[6]
  T/C: 86 % of control
[7]
  T/C: 100 % of control

## NC(Cc1ccccc1[N+](=O)[O-])C(=O)O (configuration not stated)
[3]
  T/C: 92 % of control
[5]
  T/C: 93 % of control
[8]
  T/C: 91 % of control

## Cc1nn(C(=O)c2ccccn2)c(-c2ccccc2)c1N=Nc1ccc(S(=O)(=O)Nc2ncccn2)cc1
[9]
  T/C: 102 % of control
[10]
  T/C: 100 % of control

## CCC1(C)C(C#N)C(=O)NC(=O)C1C#N (configuration not stated)
[1]
  T/C: 95 % of control
[3]
  T/C: 95 % of control

## CC(CCl)N(CCCl)Cc1cccc(Nc2ncnc3nc[nH]c23)c1 (configuration not stated)
dose: 0.13 mg/kg/injection, schedule: Q01DX009 (ip), vehicle: saline
  T/C: 118 % of control
dose: 0.15 mg/kg/injection, schedule: Q04DX003 (ip), vehicle: saline
  T/C: 104 % of control
dose: 0.22 mg/kg/injection, schedule: Q04DX003 (ip), vehicle: saline
  T/C: 109 % of control
dose: 0.33 mg/kg/injection, schedule: Q04DX003 (ip), vehicle: saline
  T/C: 118 % of control
dose: 1.3 mg/kg/injection, schedule: Q01DX009 (ip), vehicle: saline sonified
  T/C: 154 % of control
dose: 2.0 mg/kg/injection, schedule: Q01DX009 (ip), vehicle: saline sonified
  T/C: 181 % of control
dose: 3.0 mg/kg/injection, schedule: Q01DX009 (ip), vehicle: saline sonified
  T/C: 172 % of control

## O=Cc1cccc(CC(O)(C(F)(F)F)C(F)(F)F)n1
dose: 12.5 mg/kg/injection, schedule: Q01DX009 (ip), vehicle: saline with Tween-80
  T/C: 95 % of control
dose: 12.5 mg/kg/injection, schedule: Q04DX003 (ip), vehicle: saline with Tween-80
  T/C: 100 % of control
[1]
  T/C: 100 % of control
[2]
  T/C: 100 % of control
[3]
  T/C: 100 % of control
[4]
  T/C: 95 % of control

## O=C(Nc1ccc(Cl)cc1)Nc1nnc2nc(C(C(=O)/C=C/c3ccccc3)c3nc4nnc(NC(=O)Nc5ccc(Cl)cc5)n4[nH]c3=O)c(=O)[nH]n12
[9]
  T/C: 103 % of control
[10]
  T/C: 95 % of control
dose: 240.0 mg/kg/injection, schedule: Q01DX005 (ip), vehicle: saline with Tween-80
  T/C: 91 % of control

## CC(C)SC(=S)Nc1cccc(F)c1
dose: 50.0 mg/kg/injection, schedule: Q01DX009 (ip), vehicle: suspension in saline
  T/C: 107 % of control
dose: 100.0 mg/kg/injection, schedule: Q01DX009 (ip), vehicle: suspension in saline
  T/C: 109 % of control
dose: 200.0 mg/kg/injection, schedule: Q01DX009 (ip), vehicle: suspension in saline
  T/C: 107 % of control

## C/C=C(\C)C(=O)OCC1(C)C(OC(=O)/C(C)=C/C)CCC2(C)C3C(=O)C=C(C)C2C31 (configuration not stated)
dose: 25.0 mg/kg/injection, schedule: Q04DX002 (ip), vehicle: saline with Tween-80
  T/C: 110 % of control
dose: 50.0 mg/kg/injection, schedule: Q04DX002 (ip), vehicle: saline with Tween-80
  T/C: 94 % of control
dose: 100.0 mg/kg/injection, schedule: Q04DX002 (ip), vehicle: saline with Tween-80
  T/C: 97 % of control

## O=C(CC1=NCCN1)c1ccccc1
[11]
  T/C: 100 % of control
[12]
  T/C: 102 % of control
[13]
  T/C: 108 % of control

## CCS1=C2C(=O)CCCC2=Nc2ccccc21 (configuration not stated)
dose: 15.0 mg/kg/injection, schedule: Q01DX005 (ip), vehicle: saline
  T/C: 100 % of control
dose: 30.0 mg/kg/injection, schedule: Q01DX005 (ip), vehicle: saline
  T/C: 104 % of control
dose: 50.0 mg/kg/injection, schedule: Q01DX005 (ip), vehicle: saline
  T/C: 99 % of control
[14]
  T/C: 92 % of control

## CN=C(NC)c1ccc(NC(=O)c2cc(C(=O)Nc3ccc(C(=NC)NC)cc3)cc([N+](=O)[O-])c2)cc1
dose: 6.25 mg/kg/injection, schedule: Q01DX005 (ip), vehicle: Klucel (hydroxypropylcellulose) (HPC)
  T/C: 107 % of control
[15]
  T/C: 119 % of control

## CCOc1c(N=Nc2cccc([N+](=O)[O-])c2)c(C)nn1C(=S)S
dose: 60.0 mg/kg/injection, schedule: Q01DX005 (ip), vehicle: Klucel + Tween-80
  T/C: 97 % of control
dose: 120.0 mg/kg/injection, schedule: Q01DX005 (ip), vehicle: Klucel + Tween-80
  T/C: 97 % of control
dose: 240.0 mg/kg/injection, schedule: Q01DX005 (ip), vehicle: Klucel + Tween-80
  T/C: 98 % of control

## C=CCCC(=O)OC(C)(C)C
dose: 12.5 mg/kg/injection, schedule: Q01DX009 (ip), vehicle: Klucel (hydroxypropylcellulose) (HPC)
  T/C: 102 % of control
dose: 25.0 mg/kg/injection, schedule: Q01DX009 (ip), vehicle: Klucel (hydroxypropylcellulose) (HPC)
  T/C: 101 % of control
[11]
  T/C: 104 % of control
[12]
  T/C: 101 % of control
[13]
  T/C: 103 % of control

## CC(=C/c1cc(C)cc(=O)o1)/C=C/c1ccc(C)c(C)c1C
[15]
  T/C: 97 % of control
dose: 25.0 mg/kg/injection, schedule: Q01DX005 (ip), vehicle: Klucel (hydroxypropylcellulose) (HPC)
  T/C: 97 % of control
dose: 50.0 mg/kg/injection, schedule: Q01DX005 (ip), vehicle: Klucel (hydroxypropylcellulose) (HPC)
  T/C: 99 % of control and 88 % of control and 90 % of control
dose: 200.0 mg/kg/injection, schedule: Q01DX005 (ip), vehicle: Klucel (hydroxypropylcellulose) (HPC)
  T/C: 86 % of control and 88 % of control

## COC1/C=C/OC2(C)Oc3c(C)c(O)c4c(O)c(c(/C=N/N5C(C)CN(Cc6ccccc6O)CC5C)c(O)c4c3C2=O)NC(=O)/C(C)=C\C=C\C(C)C(O)C(C)C(O)C(C)C(OC(C)=O)C1C (configuration not stated)
[3]
  T/C: 92 % of control
[5]
  T/C: 96 % of control
[8]
  T/C: 91 % of control

## O=C1COCC(=O)OCCOCCSCCOCCO1
dose: 100.0 mg/kg/injection, schedule: Q04DX003 (ip), vehicle: Klucel (hydroxypropylcellulose) (HPC)
  T/C: 102 % of control
dose: 200.0 mg/kg/injection, schedule: Q04DX003 (ip), vehicle: Klucel (hydroxypropylcellulose) (HPC)
  T/C: 102 % of control
dose: 400.0 mg/kg/injection, schedule: Q04DX003 (ip), vehicle: Klucel (hydroxypropylcellulose) (HPC)
  T/C: 100 % of control

## CC(=O)N1C=CC(=C2C=CN(C(C)=O)C=C2)C=C1
dose: 5.0 mg/kg/injection, schedule: Q01DX009 (ip), vehicle: saline
  T/C: 100 % of control
dose: 10.0 mg/kg/injection, schedule: Q01DX009 (ip), vehicle: saline
  T/C: 88 % of control
dose: 20.0 mg/kg/injection, schedule: Q01DX009 (ip), vehicle: saline
  T/C: 103 % of control

## O=c1sc2ncccc2n1-c1ccc([N+](=O)[O-])cn1
dose: 100.0 mg/kg/injection, schedule: Q04DX003 (ip), vehicle: saline
  T/C: 103 % of control
dose: 200.0 mg/kg/injection, schedule: Q04DX003 (ip), vehicle: saline
  T/C: 86 % of control
dose: 400.0 mg/kg/injection, schedule: Q04DX003 (ip), vehicle: saline
  T/C: 89 % of control

## Cc1cccc(=O)[n-]1.Cc1cccc(=O)[n-]1.Cc1cccc(=O)[n-]1.Cc1cccc(=O)[n-]1.[Cr+2].[Cr+2]
dose: 100.0 mg/kg/injection, schedule: Q04DX002 (ip), vehicle: Klucel (hydroxypropylcellulose) (HPC)
  T/C: 90 % of control
dose: 200.0 mg/kg/injection, schedule: Q04DX002 (ip), vehicle: Klucel (hydroxypropylcellulose) (HPC)
  T/C: 110 % of control
dose: 400.0 mg/kg/injection, schedule: Q04DX002 (ip), vehicle: Klucel (hydroxypropylcellulose) (HPC)
  T/C: 120 % of control

## O=C(NCCS(=O)(=O)O)C1CCCN1 (configuration not stated)
[14]
  T/C: 100 % of control
dose: 120.0 mg/kg/injection, schedule: Q01DX005 (ip), vehicle: saline
  T/C: 100 % of control
dose: 240.0 mg/kg/injection, schedule: Q01DX005 (ip), vehicle: saline
  T/C: 99 % of control

## O=c1c2ccccc2sc2cccc(Sc3ccccc3)c12
[5]
  T/C: 95 % of control
[6]
  T/C: 95 % of control
[7]
  T/C: 90 % of control
dose: 400.0 mg/kg/injection, schedule: Q04DX003 (ip), vehicle: saline with Tween-80
  T/C: 90 % of control

## O=C(/C=C/c1ccccc1)CC1=NC2NN(c3ccccc3)C(=O)C2=C1CC(=O)/C=C/c1ccccc1 (configuration not stated)
dose: 60.0 mg/kg/injection, schedule: Q01DX005 (ip), vehicle: suspension in saline
  T/C: 95 % of control
dose: 120.0 mg/kg/injection, schedule: Q01DX005 (ip), vehicle: suspension in saline
  T/C: 99 % of control
dose: 240.0 mg/kg/injection, schedule: Q01DX005 (ip), vehicle: suspension in saline
  T/C: 107 % of control
